Where a name gives a salt, the structure may show the parent alone. Each block holds one compound with its values, some of them ahead of it.
Key:
[1] = test system: vesico-anal reflex; assay: acetic acid-induced vesico-anal reflex; assay type: in vivo, rat; details: for duration of the increase in vesico-anal reflex activity when administered alone / vesico-anal reflex activity when administered alone: atropine 30 μg/kg-1 mg/kg, oxybutynin 1-3 mg/kg
Source text: The model of visceral nociception that was used in the testing of the compounds according to the method of this invention is the acetic acid-induced vesico-anal reflex. This model utilizes infusion of a dilute acetic acid solution into the urinary bladder as a nociceptive stimulus and records increases in electromyographic (EMG) activity from the anal sphincter as the primary measured response. Anal sphincter EMG activity is composed of 2 components, 1) a small, long duration action potential (ca. 50 msec) that is sensitive to muscarinic antagonists and 2) a larger, short duration action potential (ca. 2 msec) that is sensitive to neuromuscular blocking agents (i.e. mediated by nicotinic receptors). […] It is the striated anal sphincter muscle activity that 1) is associated with bladder activity, 2) is increased by acetic acid infusion into the bladder, and 3) represents the vesico-anal reflex.
In the acetic acid-induced vesico-anal reflex model, bladders of urethane-anesthetized rats were cannulated through the dome for continuous-infusion cystometrogram recordings. EMG electrodes were inserted into the anus and the peri-urethral musculature for recording anal and urethral sphincteric activity, respectively.
Female Sprague-Dawley rats (200-300 g) were anesthetized with 1.4 g/kg urethane (0.7 g administered i.p. and 0.7 g administered s.c.), which was supplemented with 1% isoflurane during surgery. The urinary bladder was exposed through an abdominal incision and cannulated with PE60 tubing attached to a 22 gauge needle that was inserted through the dome of the bladder. A purse-string suture (5-0 silk) through the bladder held the needle in place. The cannula was connected to an infusion pump (Harvard Apparatus, Natick Mass.) and a pressure transducer (Statham Gould, Cleveland, Ohio) through a 3 way stopcock to allow bladder filling and pressure measurement, respectively. The abdominal incision was covered with plastic wrap. A small incision was made in the perineum to allow placement of EMG electrodes into the periurethral musculature. EMG electrodes were also placed into the muscular tissue of the anus. EMG electrodes were connected to preamplifiers (Grass P511, Quincey, Mass.) with low and high pass filters set at 10 and 3000 HZ. […] A catheter inserted into the carotid artery was connected to a pressure transducer (Statham Gould, Cleveland, Ohio) to record arterial pressure, which was used to trigger a heart rate meter (Biotach, Gould, Cleveland, Ohio). A catheter was inserted into the trachea to allow for artificial respiration and monitoring of expired CO2 (Sensor Medics. Anaheim, Calif.).
After establishing control levels of anal and urethral activity, compounds were administered intravenously. Oxotremorine sesquifumarate (Sigma Chemicals, St. Louis, Mo.), atropine sulfate (RBI, Natick, Mo.), (-) scopolamine methyl bromide (RBI), physostigmine free base (Sigma Chemicals), neostigmine bromide (Sigma) and the test compounds were all dissolved in physiological saline.

[2] = target: muscarinic receptors; assay: inhibition of binding of 3H-oxotremorine-M to muscarinic receptors; details: 3 nM 3H-oxotremorine-M, rat cerebral cortical membranes, pH 7.4, 15 min, 25° C.; read-out: Inhibition of ^3 H-Oxo
Method: The affinity of the compounds for the muscarinic receptors was determined using the non-selective agonist ligand, ^3 H-oxotremorine-M. Birdsdall N. J. M., Hulme E. C., and Burgen A. S. V. "The Character of Muscarinic Receptors in Different Regions of the Rat Brain", 207 Proc. Roy. Soc. 1 (London, Series B, 1980). Each compound was tested to determine the affinity of the compound for the muscarinic receptors using the following procedure.
For in vitro binding, male Sprague-Dawley (Harlan Sprague-Dawley, Indianapolis, Ind.) rats weighing from about 100 to about 150 grams each were sacrificed by decapitation. The brains were quickly removed and the cerebral cortex were dissected from the brain. The cerebral cortex tissue was homogenized in 10 volumes of 0.32M sucrose and […] at about 1000×g. The supernatant was centrifuged at about 12,000×g for about 10 minutes and the resulting pellet was resuspended in 20 mM tris-Cl, pH 7.4. The resuspended pellet was centrifuged again for about 10 minutes at about 50,000×g. The resulting homogenate was preincubated for about 10 minutes at about 25° C. and centrifuged again for about 10 minutes at about 50,000×g. The pellet was resuspended at 1 gram of pellet per 3 ml of buffer and frozen at about -80° C. until used.
The inhibition of binding of ^3 H-oxotremorine-M to muscarinic receptors was determined by mixing the compound of the Example, 3 nM ^3 H-oxotremorine-M (about 87 Ci/mmoles, New England Nuclear, Boston Mass.), and cerebral cortical membranes equivalent to about 10 mg wet weight, which is about 100 μg of cortical membrane protein, in about 1 ml total volume of […] tris-Cl buffer, pH 7.4, containing 1 mM MnCl2. The aforementioned homogenates mixture was incubated for about 15 minutes at about 25° C. and then the homogenates were filtered through glass filters (Whatman, GF/C) with vacuum. The filters were washed 3 times with about 2 ml of cold tris-Cl buffer, and placed in scintillation vials containing about 10 ml of scintillation fluid (Ready Protein+, Beckman, Fullerton, Calif.). Radioactivity trapped on the filters was determined by liquid scintillation spectrometry. Nonspecific binding was determined using 1 μM atropine. The concentration of compound required to inhibit specific binding 50% (IC50) was determined using standardized computer assisted calculations (DeLean, A. et al. Am. J. Physiol., 235, (1978)).

[3] = 0.5% acetic acid infused into the bladder or urethra

SMILES: CCN(CC)CC#CCOC(=O)C(O)(c1ccccc1)C1CCCCC1 (stereo not drawn) [oxybutynin]
duration of the increase in vesico-anal reflex activity when administered alone [1]: 15 min
vesico-anal reflex activity when administered alone [1]: robust, but transient (15 min.), increases in vesico-anal reflex activity

SMILES: CN1C2CCC1CC(OC(=O)C(CO)c1ccccc1)C2 (stereo not drawn) [atropine, atropine sulfate]
duration of the increase in vesico-anal reflex activity when administered alone [1]: 15 min
vesico-anal reflex activity when administered alone [1]: robust, but transient (15 min.), increases in vesico-anal reflex activity
reversal of the cholinergic agonist-induced inhibition of vesico-anal reflex activity ([1]; atropine 0.3-1 mg/kg): reversed

SMILES: C[N+]1(C)[C@@H]2C[C@@H](OC(=O)[C@H](CO)c3ccccc3)C[C@H]1[C@@H]1O[C@@H]12 [Scopolamine methyl bromide, (-) scopolamine methyl bromide]
blocking of the cholinergic agonist-mediated inhibition of the vesico-anal reflex ([1]; scopolamine methyl bromide 1-30 ug/kg, peripherally-restricted): ineffective

SMILES: O=C1CCCN1CC#CCN1CCCC1 [Oxotremorine, Oxotremorine sesquifumarate]
inhibition of vesico-anal reflex activity (in words) ([1]; oxotremorine 1-30 μg/kg iv, test compounds 0.01-1.0 mg/kg iv): dose-dependent inhibition of vesico-anal reflex activity
inhibition of vesico-anal reflex activity (to % of control) ([1]; oxotremorine 1-30 μg/kg iv, urethane-anesthetized rats): 10 % of control

SMILES: CC(=O)O [acetic acid]
anal sphincter activity [1, 3]: pronounced increases in anal sphincter activity
bladder contractile activity and urethral sphincter activity [1, 3]: modest increases in bladder contractile activity and urethral sphincter activity
duration of acetic acid-induced increase in vesico-anal reflex activity ([1]; in 95% of the animals): over 2 hours

SMILES: CCCOc1nsnc1[C@@H]1CN2CCC[C@@H]1C2 (relative stereo) [Compound 119, Exo-6-(3-propoxy-1,2,5-thiadiazol-4-yl)-1-azabicyclo[3.2.1]octane oxalate]
IC50 [2]: 0.9 nM

SMILES: CNC(=O)Oc1ccc2c(c1)[C@]1(C)CCN(C)[C@@H]1N2C [physostigmine, physostigmine free base]
suppression of the VA reflex by cholinesterase inhibitor ([1]; centrally active (physostigmine) vs peripherally-restricted (neostigmine)): suppressed the VA reflex in a dose-dependent, atropine-sensitive manner

SMILES: CCOc1nsnc1C1CN2CCC1CC2 (stereo not drawn) [Compound 9, 3-(3-Ethoxy-1,2,5-thiadiazol-4-yl)-1-azabicyclo[2.2.2]octane fumarate]
IC50 [2]: 2.1 nM

IC50 [2]: 2.1 nM
SMILES: CCCCCCOc1nsnc1[C@@H]1CN2CCC[C@@H]1C2 (relative stereo) [Compound 122, Exo-6-(3-hexyloxy-1,2,5-thiadiazol-4-yl)-1-azabicyclo[3.2.1]octane oxalate]
